# Source: PMC8213057, “Targeting ALK2: An Open Science Approach to Developing Therapeutics for the Treatment of Diffuse Intrinsic Pontine Glioma” (Journal of Medicinal Chemistry, 2020)
# Key:
# NEK8 = molecular target: T1, NEK8 (Homo sapiens, UniProt Q86SG6); assay: biochemical; details: read-out: % enzyme activity, 1 μM; Run 1, Run 2
# T1 sequence (Q86SG6 1-692): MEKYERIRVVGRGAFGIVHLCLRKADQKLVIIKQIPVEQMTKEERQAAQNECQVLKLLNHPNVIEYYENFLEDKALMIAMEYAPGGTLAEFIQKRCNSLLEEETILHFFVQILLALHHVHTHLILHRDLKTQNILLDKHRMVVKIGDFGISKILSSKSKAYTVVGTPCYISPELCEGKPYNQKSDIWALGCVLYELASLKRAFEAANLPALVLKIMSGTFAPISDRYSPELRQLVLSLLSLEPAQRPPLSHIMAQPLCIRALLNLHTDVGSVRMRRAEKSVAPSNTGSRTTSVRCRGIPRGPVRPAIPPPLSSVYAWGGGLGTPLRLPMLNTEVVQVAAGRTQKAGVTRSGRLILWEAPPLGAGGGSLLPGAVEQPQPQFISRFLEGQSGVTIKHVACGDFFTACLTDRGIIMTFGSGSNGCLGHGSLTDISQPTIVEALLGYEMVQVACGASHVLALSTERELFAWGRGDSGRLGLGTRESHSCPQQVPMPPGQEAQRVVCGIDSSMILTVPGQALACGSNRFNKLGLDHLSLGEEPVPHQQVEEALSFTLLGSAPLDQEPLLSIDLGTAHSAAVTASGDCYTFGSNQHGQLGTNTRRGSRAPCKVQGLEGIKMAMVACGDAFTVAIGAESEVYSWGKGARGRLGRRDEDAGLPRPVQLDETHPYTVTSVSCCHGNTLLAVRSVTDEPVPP
# PKCb2 = PKCb2 (Homo sapiens, UniProt P05771); assay: biochemical; details: read-out: % enzyme activity, 1 μM; Run 1, Run 2
# ARK5/NUAK1 = molecular target: T2, ARK5/NUAK1 (Homo sapiens, UniProt O60285); assay: biochemical; details: read-out: % enzyme activity, 1 μM; Run 1, Run 2
# T2 sequence (O60285 1-661): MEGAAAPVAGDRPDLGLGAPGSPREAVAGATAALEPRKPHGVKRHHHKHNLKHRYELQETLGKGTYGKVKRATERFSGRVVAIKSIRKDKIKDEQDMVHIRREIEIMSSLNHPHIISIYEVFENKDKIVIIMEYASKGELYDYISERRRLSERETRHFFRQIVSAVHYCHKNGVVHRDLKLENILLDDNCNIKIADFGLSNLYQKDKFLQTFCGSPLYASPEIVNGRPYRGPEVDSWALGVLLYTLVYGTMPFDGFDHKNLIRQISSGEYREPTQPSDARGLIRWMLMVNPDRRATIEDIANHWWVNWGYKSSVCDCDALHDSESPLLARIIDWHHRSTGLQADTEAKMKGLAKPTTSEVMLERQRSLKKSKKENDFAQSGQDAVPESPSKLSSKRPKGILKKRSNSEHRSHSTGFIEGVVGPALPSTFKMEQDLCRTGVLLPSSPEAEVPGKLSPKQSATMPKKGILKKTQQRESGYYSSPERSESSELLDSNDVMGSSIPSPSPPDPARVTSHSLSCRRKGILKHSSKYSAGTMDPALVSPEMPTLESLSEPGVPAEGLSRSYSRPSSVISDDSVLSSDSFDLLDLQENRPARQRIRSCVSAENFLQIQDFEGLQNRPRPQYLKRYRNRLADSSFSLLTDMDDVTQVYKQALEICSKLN
# P38a/MAPK14 = P38a/MAPK14 (Homo sapiens, UniProt Q16539); details: 1 μM; Run 1, Run 2
# ULK1 = molecular target: T3, ULK1 (Homo sapiens, UniProt O75385); details: 1 μM; Run 1, Run 2
# T3 sequence (O75385 1-1050): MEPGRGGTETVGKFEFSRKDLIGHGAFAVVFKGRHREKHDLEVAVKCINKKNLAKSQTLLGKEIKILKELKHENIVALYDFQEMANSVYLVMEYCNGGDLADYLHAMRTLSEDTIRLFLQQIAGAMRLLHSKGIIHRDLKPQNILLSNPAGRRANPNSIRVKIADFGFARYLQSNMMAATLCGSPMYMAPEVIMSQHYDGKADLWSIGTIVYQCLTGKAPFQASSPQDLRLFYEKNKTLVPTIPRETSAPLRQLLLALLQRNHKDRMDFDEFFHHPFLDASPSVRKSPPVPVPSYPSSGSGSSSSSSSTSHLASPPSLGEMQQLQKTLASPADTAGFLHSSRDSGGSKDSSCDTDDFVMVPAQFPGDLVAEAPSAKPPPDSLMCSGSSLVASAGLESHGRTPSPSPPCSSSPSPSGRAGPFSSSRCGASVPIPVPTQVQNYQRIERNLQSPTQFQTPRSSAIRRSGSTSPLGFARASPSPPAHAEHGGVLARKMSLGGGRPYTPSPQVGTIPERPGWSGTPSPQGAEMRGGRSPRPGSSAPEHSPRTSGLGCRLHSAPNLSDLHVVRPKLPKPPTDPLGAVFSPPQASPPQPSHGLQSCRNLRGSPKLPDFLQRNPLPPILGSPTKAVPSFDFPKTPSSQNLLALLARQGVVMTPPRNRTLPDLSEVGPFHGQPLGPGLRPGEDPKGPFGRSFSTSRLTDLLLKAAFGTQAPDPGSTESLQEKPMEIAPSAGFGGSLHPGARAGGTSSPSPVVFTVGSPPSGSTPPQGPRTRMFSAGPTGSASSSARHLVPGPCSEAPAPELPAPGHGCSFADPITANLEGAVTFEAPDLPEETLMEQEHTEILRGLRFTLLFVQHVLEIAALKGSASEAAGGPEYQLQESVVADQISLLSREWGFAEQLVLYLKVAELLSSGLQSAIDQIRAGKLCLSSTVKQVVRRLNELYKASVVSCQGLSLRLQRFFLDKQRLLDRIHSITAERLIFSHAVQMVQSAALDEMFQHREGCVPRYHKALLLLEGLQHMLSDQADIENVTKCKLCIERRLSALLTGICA
# Chain of P38a/MAPK14 (Q16539 whole entry): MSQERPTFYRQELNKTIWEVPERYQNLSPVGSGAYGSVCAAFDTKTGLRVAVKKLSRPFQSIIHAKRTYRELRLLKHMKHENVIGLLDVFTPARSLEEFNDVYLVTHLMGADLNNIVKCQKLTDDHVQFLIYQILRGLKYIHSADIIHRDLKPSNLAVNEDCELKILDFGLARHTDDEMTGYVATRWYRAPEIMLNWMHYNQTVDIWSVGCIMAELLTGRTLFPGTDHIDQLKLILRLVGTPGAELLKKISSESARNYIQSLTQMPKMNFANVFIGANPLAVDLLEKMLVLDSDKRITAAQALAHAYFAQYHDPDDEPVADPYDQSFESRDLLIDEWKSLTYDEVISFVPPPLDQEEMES
# Chain of PKCb2 (P05771 1-673 isoform P05771-2): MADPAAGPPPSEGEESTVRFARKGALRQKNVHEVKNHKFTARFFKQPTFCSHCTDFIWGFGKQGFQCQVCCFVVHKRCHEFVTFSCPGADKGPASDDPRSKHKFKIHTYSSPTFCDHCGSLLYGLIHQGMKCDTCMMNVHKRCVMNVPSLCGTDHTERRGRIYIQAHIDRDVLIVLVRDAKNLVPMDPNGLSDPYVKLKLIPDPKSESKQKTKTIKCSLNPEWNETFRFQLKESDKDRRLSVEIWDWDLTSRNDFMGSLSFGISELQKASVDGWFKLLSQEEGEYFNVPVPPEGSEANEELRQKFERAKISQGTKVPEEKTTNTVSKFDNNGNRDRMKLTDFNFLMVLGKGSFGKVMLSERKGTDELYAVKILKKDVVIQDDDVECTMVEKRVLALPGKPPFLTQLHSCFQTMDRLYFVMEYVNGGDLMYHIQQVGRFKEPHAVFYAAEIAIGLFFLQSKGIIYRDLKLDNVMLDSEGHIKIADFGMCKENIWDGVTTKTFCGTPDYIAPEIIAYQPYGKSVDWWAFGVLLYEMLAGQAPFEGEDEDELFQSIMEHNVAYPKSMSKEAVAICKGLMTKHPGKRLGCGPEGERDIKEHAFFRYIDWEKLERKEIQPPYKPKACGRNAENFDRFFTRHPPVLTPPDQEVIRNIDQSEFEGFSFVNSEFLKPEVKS
SMILES,remaining activity at 1 µM (NEK8),remaining activity at 1 µM (PKCb2),remaining activity at 1 µM (ARK5/NUAK1),% enzyme activity (P38a/MAPK14),% enzyme activity (ULK1)
"COc1cc(-c2cncc(-c3ccc(N4CCN(C)CC4)cc3)c2C)cc(F)c1C(N)=O [Compound 26a, 2-Fluoro-6-methoxy-4-(4-methyl-5-(4-(4-methylpiperazin-1-yl)phenyl)pyridin-3-yl)benzamide]",98.4%,107%,97.6%,91.67%,83.53%
"COc1cc(-c2cncc(-c3ccc(N4C[C@@H](C)N(C)[C@@H](C)C4)cc3)c2C)cc(F)c1C(N)=O [Compound 26c, 2-Fluoro-6-methoxy-4-(4-methyl-5-(4-((3R,5S)-3,4,5-trimethylpiperazin-1-yl)phenyl)pyridin-3-yl)benzamide]",109%,99.1%,96%,96.02%,89.24%
